Among the data in patent US7566712B2, “Biaryl piperazinyl-pyridine analogues” (Neurogen Corporation, priority 2003, dated 2009) are IC50 values, retold here.

T1 sequence (Q8NER1 whole entry): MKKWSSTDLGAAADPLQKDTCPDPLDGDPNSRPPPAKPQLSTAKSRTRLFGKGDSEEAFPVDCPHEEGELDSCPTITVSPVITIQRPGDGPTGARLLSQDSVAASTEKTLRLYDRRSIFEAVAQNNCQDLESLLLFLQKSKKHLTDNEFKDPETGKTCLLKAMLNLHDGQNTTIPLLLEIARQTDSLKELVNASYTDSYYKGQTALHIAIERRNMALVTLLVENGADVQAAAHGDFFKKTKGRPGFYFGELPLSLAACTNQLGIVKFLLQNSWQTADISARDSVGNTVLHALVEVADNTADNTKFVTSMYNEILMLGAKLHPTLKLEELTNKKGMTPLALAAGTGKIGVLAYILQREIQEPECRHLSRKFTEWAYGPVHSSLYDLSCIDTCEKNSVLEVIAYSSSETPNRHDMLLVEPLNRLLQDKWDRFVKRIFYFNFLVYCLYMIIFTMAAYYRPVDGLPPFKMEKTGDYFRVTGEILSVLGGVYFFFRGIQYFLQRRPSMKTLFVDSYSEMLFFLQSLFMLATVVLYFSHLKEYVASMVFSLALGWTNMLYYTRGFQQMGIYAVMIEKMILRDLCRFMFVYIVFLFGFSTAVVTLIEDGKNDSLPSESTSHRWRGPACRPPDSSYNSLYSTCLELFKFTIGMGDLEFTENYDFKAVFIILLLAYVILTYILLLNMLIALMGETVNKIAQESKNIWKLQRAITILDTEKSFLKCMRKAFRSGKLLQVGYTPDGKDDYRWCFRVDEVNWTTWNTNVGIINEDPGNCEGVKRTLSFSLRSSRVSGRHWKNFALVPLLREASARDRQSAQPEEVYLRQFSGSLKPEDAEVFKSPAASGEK

One assay has as its target T1, human capsaicin receptor (Homo sapiens, UniProt Q8NER1).
T1 construct: pBK-CMV expression construct encoding the full length human capsaicin receptor; expressed in transfected cells
In words: Calcium mobilization assay, determination of antagonist activity (Example 6). Format: cell-based. Particulars: Table II; IC50 determined as described in Example 6. The method, boiled down: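 Antagonism measured as inhibition of capsaicin-evoked (final concentration = EC50, from an 8-point 1 nM–3 μM curve) Fluo-3 calcium signal in stable hVR1-HEK293 cells. Test compounds at 1–5 μM final, 0.5–6 h dark preincubation at room temperature. IC50 = concentration giving 50% reduction versus agonist-only response.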
On the technique in general: Calcium flux is commonly read through the fluorescence of an indicator in the cells.
The IC50 is the concentration needed to halve the response being measured. Consider `C[C@@H]1CN(c2ncccc2Cl)CCN1c1cc(-c2ccc3ccccc3c2)nc(N2CCOCC2)n1` [Example 492, 4-[4-[(2R)-4-(3-chloropyridin-2-yl)-2-methylpiperazin-1-yl]-6-(2-naphthyl)pyrimidin-2-yl]morpholine], for which the IC50 was at most 1000 nM.

Turning to `Cc1ccc(-c2cc(N3CCN(c4ncccc4C(F)(F)F)C[C@H]3C)nc(N3CCOCC3)n2)cc1F` [Example 495, 4-(4-(3-fluoro-4-methylphenyl)-6-{(2R)-2-methyl-4-[3-(trifluoromethyl)pyridin-2-yl]piperazin-1-yl}pyrimidin-2-yl)morpholine], the concentration for half-maximal inhibition (IC50) was at most 1000 nM.

In the case of `COC[C@@H]1CCCN1c1nc(-c2ccc(F)c(Cl)c2)cc(N2CCN(c3ncccc3C(F)(F)F)CC2)n1` [Example 550, 4-(3-chloro-4-fluorophenyl)-2-[(2S)-2-(methoxymethyl)pyrrolidin-1-yl]-6-{4-[3-(trifluoromethyl)pyridin-2-yl]piperazin-1-yl}pyrimidine], the IC50 is at most 1000 nM.

Staying with this assay, now noted: Table II; IC50 determined as described in Example 6 (antagonist activity, calcium mobilization).
`C[C@H]1CN(c2nccnc2Cl)CCN1c1cc(-c2ccc(F)c(Cl)c2)nc(N2CCC[C@@H]2C)n1` [Example 987, 4-(3-chloro-4-fluorophenyl)-6-[(2S)-4-(3-chloropyrazin-2-yl)-2-methylpiperazin-1-yl]-2-[(2S)-2-methylpyrrolidin-1-yl]pyrimidine]: the IC50 was at most 1000 nM.

Take `CC1CCCN1c1nc(-c2ccc(F)cc2)cc(N2CCN(c3nc(C#N)ccc3C#N)C[C@H]2C)n1` (stereo in doubt) [Example 1014, 6-{4-[6-(4-fluorophenyl)-2-(2-methylpyrrolidin-1-yl)pyrimidin-4-yl]-3-methylpiperazin-1-yl}pyridine-2,5-dicarbonitrile]: the IC50 was at most 1000 nM.

The same assay, now with this note: Table II; determined as described in Example 6 (antagonist activity); "*" = 1 micromolar or less.
On to `CCOC(=O)C1CCN(c2nc(-c3ccc(F)c(Cl)c3)cc(N3CCN(c4ncccc4C(F)(F)F)CC3)n2)CC1` [Example 797, ethyl 1-(4-(3-chloro-4-fluorophenyl)-6-{4-[3-(trifluoromethyl)pyridin-2-yl]piperazin-1-yl}pyrimidin-2-yl)piperidine-4-carboxylate], for which the IC50 is at most 1000 nM.

Regarding `C[C@@H]1CN(c2ncccc2F)CCN1c1cc(-c2ccc(F)c(F)c2)nc(Cl)n1` [Example 894, 2-chloro-4-(3,4-difluorophenyl)-6-[(2R)-4-(3-fluoropyridin-2-yl)-2-methylpiperazin-1-yl]pyrimidine], the IC50 was at most 1000 nM.

For `COC1CN(c2nc(-c3ccc(F)c(Cl)c3)cc(N3CCN(c4ncccc4C(F)(F)F)CC3)n2)C1` [Example 776, 4-(3-chloro-4-fluorophenyl)-2-(3-methoxyazetidin-1-yl)-6-{4-[3-(trifluoromethyl)pyridin-2-yl]piperazin-1-yl}pyrimidine], the IC50 is at most 1000 nM.

As for `CC1CCCN1c1nc(-c2ccc(F)c(F)c2)cc(N2CCN(c3nccnc3Cl)C[C@@H]2C)n1` (stereo partly drawn) [Example 938, 4-[(2S)-4-(3-chloropyrazin-2-yl)-2-methylpiperazin-1-yl]-6-(3,4-difluorophenyl)-2-(2-methylpyrrolidin-1-yl)pyrimidine], the concentration for half-maximal inhibition (IC50) was at most 1000 nM.

Take `C[C@@H]1CCCN1c1nc(-c2ccc(F)c(F)c2)cc(N2CCN(c3ncccc3Cl)C[C@@H]2C)n1` [Example 930, 4-[(2S)-4-(3-chloropyridin-2-yl)-2-methylpiperazin-1-yl]-6-(3,4-difluorophenyl)-2-[(2R)-2-methylpyrrolidin-1-yl]pyrimidine]: the IC50 was at most 1000 nM.

Staying with this assay, now noted: Table II; determined as described in Example 6; class symbol.
Turning to `Fc1ccc(-c2nc(N3CCCCCC3)nc(N3CCN(c4ncccc4C(F)(F)F)CC3)n2)cc1Cl` [Example 265, 1-(4-(3-chloro-4-fluorophenyi)-6-{4-[3-(trifluoromethyl)pyridin-2-yl]piperazin-1-yl}-1,3,5-triazin-2-yl)azepane], the IC50 is at most 1000 nM.

Consider `Cc1cccc(-c2nc(N3CCN(c4ncccc4C(F)(F)F)CC3)nc(N3CC(C)OC(C)C3)n2)c1` (stereo not shown) [Example 263, 2-(2,6-dimethylmorpholin-4-yl)-4-(3-methylphenyl)-6-{4-[3-(trifluoromethyl)pyridin-2-yl]piperazin-1-yl}-1,3,5-triazine], for which the IC50 was at most 1000 nM.

Staying with this assay, now noted: determined as described in Example 6 (calcium mobilization, antagonist activity); Table II.
Regarding `CN(c1nc(-c2ccc(F)c(Cl)c2)cc(N2CCN(c3ncccc3C(F)(F)F)CC2)n1)C1CCCCC1` [Example 578, 4-(3-chloro-4-fluorophenyl)-N-cyclohexyl-N-methyt-6-{4-[3-(trifluoromethyl)pyridin-2-yl]piperazin-1-yl}pyrimidin-2-amine], the concentration for half-maximal inhibition (IC50) was at most 1000 nM.

`Cc1cc(-c2cc(N3CCN(c4ncccc4C(F)(F)F)CC3)nc(N3CCOCC3)n2)ccc1F` [Example 576, 4-(4-(4-fluoro-3-methylphenyl)-6-{4-[3-(trifluoromethyl)pyridin-2-yl]piperazin-1-yl}pyrimidin-2-yl)morpholifle]: the IC50 is at most 1000 nM.

Turning to `CC1CNCCN1c1nc(-c2ccc(F)c(Cl)c2)cc(N2CCN(c3ncccc3C(F)(F)F)CC2)n1` (stereo not shown) [Example 629, 4-(3-chloro-4-fluorophenyl)-2-(2-methylpiperazin-1-yl)-6-{4-[3-(trifluoromethyl)pyridin-2-yl]piperazin-1-yl}pyrimidine], the IC50 is at most 1000 nM.

Regarding `COC[C@H]1CCCN1c1nc(-c2ccc(F)c(C)c2)cc(N2CCN(c3ncccc3Cl)C[C@H]2C)n1` [Example 728, 4-[(2R)-4-(3-chloropyridin-2-yl)-2-methylpiperazin-1-yl]-6-(4-fluoro-3-methylphenyl)-2-[(2R)-2-(methoxymethyl)pyrrolidin-1-yl]pyrimidine], the IC50 was at most 1000 nM.

Regarding `C[C@@H]1CN(c2ncccc2Cl)CCN1c1cc(-c2ccc(F)c(F)c2)nc(N2CCCC2)n1` [Example 767, 4-[(2R)-4-(3-chloropyridin-2-yl)-2-methylpiperazin-1-yl]-6-(3,4-difluorophenyl)-2-pyrrolidin-1-ylpyrimidine], the IC50 is at most 1000 nM.

Turning to `Fc1ccc(-c2cc(N3CCN(c4ncccc4C(F)(F)F)CC3)nc(-c3ncc[nH]3)n2)cc1Cl` [Example 656, 4-(3-chloro-4-fluorophenyl)-2-(1H-imidazol-2-yl)-6-{4-[3-(trifluoromethyl)pyridin-2-yl]piperazin-1-yl}pyrimidine], the IC50 is at most 1000 nM.

Take `Fc1ccc(-c2cc(N3CCN(c4ncccc4C(F)(F)F)CC3)nc(N3CCC(CCN4CCCC4)CC3)n2)cc1Cl` [Example 665, 4-(3-chloro-4-fluorophenyl)-2-[4-(2-pyrrolidin-1-ylethyl)piperidin-1-yl]-6-{4-[3-(trifluoromethyl)pyridin-2-yl]piperazin-1-yl}pyrimidine]: the IC50 is at most 1000 nM.

As for `CNc1nc(-c2ccc(F)c(Cl)c2)cc(N2CCN(c3ncccc3C(F)(F)F)CC2)n1` [Example 639, 4-(3-chloro-4-fluorophenyl)-N-methyl-6-{4-[3-(trifluoromethyl)pyridin-2-yl]piperazin-1-yl}pyrimidin-2-amine], the concentration for half-maximal inhibition (IC50) is at most 1000 nM.

Consider `Fc1ccc(-c2cc(N3CCN(c4ncccc4C(F)(F)F)CC3)nc(N3CCC(N4CCCC4)CC3)n2)cc1Cl` [Example 666, 4-(3-chloro-4-fluorophenyl)-2-(4-pyrrolidin-1-ylpiperidin-1-yl)-6-{4-[3-(trifluoromethyl)pyridin-2-yl]piperazin-1-yl}pyrimidine], for which the IC50 was at most 1000 nM.

Consider `CC(C)N(C)c1nc(-c2ccc(F)c(Cl)c2)cc(N2CCN(c3ncccc3C(F)(F)F)CC2)n1` [Example 600, 4-(3-chloro-4-fluorophenyl)-N-isopropyl-N-methyl-6-{4-[3-(trifluoromethyl)pyridin-2-yl]piperazin-1-yl}pyrimidin-2-amine], for which the IC50 was at most 1000 nM.
